# Data: patent US8895733B2 (Novartis AG, priority 2010, dated 2014)
# Target: T1, Nav 1.7 (Homo sapiens, UniProt Q15858)
# T1 construct: expressed in transfected cells
# Experiment: Whole-cell voltage clamp electrophysiology, automated patch clamp (marker c in Table of Examples)
# Type: cell-based
# Conditions: marker c = Automated patch clamp data; read-out: Nav 1.7 activity
# Procedure, shortened: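 A voltage protocol weighted toward inactivated-state block was used to test compounds on stably expressing cells, with pulses from −65 mV holding to −10 mV test and −100 mV. Currents came from whole-cell automated patch-clamp recordings, either IonWorks Quattro or other automated instruments, usually in perforated-patch mode.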
# T1 sequence (Q15858 whole entry): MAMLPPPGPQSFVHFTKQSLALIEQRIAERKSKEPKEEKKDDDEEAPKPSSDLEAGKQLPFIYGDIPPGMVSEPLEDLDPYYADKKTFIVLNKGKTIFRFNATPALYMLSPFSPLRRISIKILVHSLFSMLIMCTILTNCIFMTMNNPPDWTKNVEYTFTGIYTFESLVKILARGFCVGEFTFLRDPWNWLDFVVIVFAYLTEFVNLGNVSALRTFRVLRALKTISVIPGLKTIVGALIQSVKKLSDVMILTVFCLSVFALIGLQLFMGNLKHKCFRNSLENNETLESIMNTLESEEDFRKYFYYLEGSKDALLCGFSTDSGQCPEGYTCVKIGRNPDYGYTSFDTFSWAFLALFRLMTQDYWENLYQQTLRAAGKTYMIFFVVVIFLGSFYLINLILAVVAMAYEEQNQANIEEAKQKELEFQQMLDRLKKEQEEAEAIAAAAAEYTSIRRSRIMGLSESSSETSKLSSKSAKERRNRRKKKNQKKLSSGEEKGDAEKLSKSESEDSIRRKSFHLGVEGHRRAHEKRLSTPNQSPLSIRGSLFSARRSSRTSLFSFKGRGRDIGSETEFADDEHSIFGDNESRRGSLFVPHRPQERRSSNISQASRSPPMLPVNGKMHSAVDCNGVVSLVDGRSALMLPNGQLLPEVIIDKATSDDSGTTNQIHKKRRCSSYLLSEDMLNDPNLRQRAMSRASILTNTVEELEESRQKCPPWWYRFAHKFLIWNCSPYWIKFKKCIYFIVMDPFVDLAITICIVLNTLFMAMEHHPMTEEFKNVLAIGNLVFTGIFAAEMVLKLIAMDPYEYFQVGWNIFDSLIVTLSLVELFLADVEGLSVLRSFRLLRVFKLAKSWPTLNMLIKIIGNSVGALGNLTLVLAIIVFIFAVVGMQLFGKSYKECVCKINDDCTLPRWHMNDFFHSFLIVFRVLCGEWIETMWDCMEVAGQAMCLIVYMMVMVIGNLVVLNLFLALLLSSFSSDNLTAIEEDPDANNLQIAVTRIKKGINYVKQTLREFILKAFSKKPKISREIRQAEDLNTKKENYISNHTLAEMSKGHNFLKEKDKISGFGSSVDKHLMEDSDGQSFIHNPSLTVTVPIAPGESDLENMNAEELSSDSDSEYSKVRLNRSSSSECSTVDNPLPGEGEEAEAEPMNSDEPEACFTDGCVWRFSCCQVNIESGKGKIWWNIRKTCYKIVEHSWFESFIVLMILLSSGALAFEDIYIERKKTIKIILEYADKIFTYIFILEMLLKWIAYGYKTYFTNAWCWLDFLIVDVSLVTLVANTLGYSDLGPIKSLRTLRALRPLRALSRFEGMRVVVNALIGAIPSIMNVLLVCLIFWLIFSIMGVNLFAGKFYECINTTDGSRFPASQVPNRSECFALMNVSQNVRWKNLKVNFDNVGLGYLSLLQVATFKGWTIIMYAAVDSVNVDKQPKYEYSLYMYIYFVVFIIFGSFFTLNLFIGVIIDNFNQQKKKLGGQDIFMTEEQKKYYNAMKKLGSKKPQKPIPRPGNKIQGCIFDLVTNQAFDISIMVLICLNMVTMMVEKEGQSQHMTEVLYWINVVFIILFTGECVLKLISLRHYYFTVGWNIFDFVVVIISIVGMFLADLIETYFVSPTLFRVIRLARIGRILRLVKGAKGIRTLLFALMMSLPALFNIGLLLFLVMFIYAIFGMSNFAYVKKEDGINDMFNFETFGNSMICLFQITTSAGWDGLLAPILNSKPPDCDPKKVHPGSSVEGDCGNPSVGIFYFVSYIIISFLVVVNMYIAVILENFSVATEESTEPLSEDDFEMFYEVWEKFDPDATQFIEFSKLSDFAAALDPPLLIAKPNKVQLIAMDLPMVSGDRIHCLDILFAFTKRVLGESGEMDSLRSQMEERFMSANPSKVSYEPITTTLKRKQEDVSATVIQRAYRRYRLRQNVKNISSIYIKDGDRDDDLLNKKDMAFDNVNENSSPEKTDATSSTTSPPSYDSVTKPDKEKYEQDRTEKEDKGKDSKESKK
row,Compound,IC50 [nM]
1,"CN(c1ccccc1)c1nc(N)nc(-c2noc(-c3ccc(C(F)(F)F)nc3)n2)n1 [Example 267, 2-N-methyl-2-N-phenyl-6-{5-[6-(trifluoromethyl)pyridin-3-yl]-1,2,4-oxadiazol-3-yl}-1,3,5-triazine-2,4-diamine]",> 8260
2,"CN(c1ccccc1)c1nc(N)nc(-c2noc(-c3ccc(CNC4CCC4)nc3)n2)n1 [Example 300, 6-(5-{6-[(cyclobutylamino)methyl]pyridin-3-yl}-1,2,4-oxadiazol-3-yl)-2-N-methyl-2-N-phenyl-1,3,5-triazine-2,4-diamine]",619
3,"Nc1nc(Nc2ccccc2)nc(-c2noc(C(=O)NC3CCC3)n2)n1 [Example 228, 3-[4-amino-6-(phenylamino)-1,3,5-triazin-2-yl]-N-cyclobutyl-1,2,4-oxadiazole-5-carboxamide]",401
4,"CN(c1ccccc1)c1nc(N)nc(-c2noc(-c3cc(C(F)(F)F)[nH]n3)n2)n1 [Example 255, 2-N-methyl-2-N-phenyl-6-{5-[5-(trifluoromethyl)-1H-pyrazol-3-yl]-1,2,4-oxadiazol-3-yl}-1,3,5-triazine-2,4-diamine]",6450
5,"Nc1nc(Nc2ccccc2)nc(-c2noc(C(=O)NC3Cc4ccccc4C3)n2)n1 [Example 229, 3-[4-amino-6-(phenylamino)-1,3,5-triazin-2-yl]-N-(2,3-dihydro-1H-inden-2-yl)-1,2,4-oxadiazole-5-carboxamide]",9190
6,"CC(OCC(F)(F)F)c1ccc(-c2nc(-c3nc(N)nc(N(C)c4ccccc4)n3)no2)cn1 (stereo not drawn) [Example 209, 2-N-methyl-2-N-phenyl-6-(5-{6-[1-(2,2,2-trifluoroethoxy)ethyl]pyridin-3-yl}-1,2,4-oxadiazol-3-yl)-1,3,5-triazine-2,4-diamine]",74

# The remaining lines, values ahead:
row,IC50 [nM],Compound
1,7960,"CN(c1ccccc1)c1nc(N)nc(-c2noc(-c3ccc(NC4CCOC4)nc3)n2)n1 (stereo not drawn) [Example 328, 2-N-methyl-6-(5-{6-[(oxolan-3-yl)amino]pyridin-3-yl}-1,2,4-oxadiazol-3-yl)-2-N-phenyl-1,3,5-triazine-2,4-diamine]"
2,8450,"CN(c1ccccc1)c1nc(N)nc(-c2noc(-c3ccc(=O)[nH]c3)n2)n1 [Example 334, 5-(3-{4-amino-6-[methyl(phenyl)amino]-1,3,5-triazin-2-yl}-1,2,4-oxadiazol-5-yl)-1,2-dihydropyridin-2-one]"
3,797,"CC(C)S(=O)(=O)N1CCC(c2nc(-c3nc(N)nc(Nc4ccccc4)n3)no2)CC1 [Example 515, 2-N-phenyl-6-{5-[1-(propane-2-sulfonyl)piperidin-4-yl]-1,2,4-oxadiazol-3-yl}-1,3,5-triazine-2,4-diamine]"
4,1640,"Nc1nc(Nc2ccccc2)nc(-c2noc(C(=O)N3CCC(COCC(F)(F)F)CC3)n2)n1 [Example 461, 2-N-phenyl-6-[5-({4-[(2,2,2-trifluoroethoxy)methyl]piperidin-1-yl}carbonyl)-1,2,4-oxadiazol-3-yl]-1,3,5-triazine-2,4-diamine]"
5,107,"CN(c1ccccc1)c1nc(N)nc(-c2noc(-c3ccc4c(c3)CCO4)n2)n1 [Example 339, 6-[5-(2,3-dihydro-1-benzofuran-5-yl)-1,2,4-oxadiazol-3-yl]-2-N-methyl-2-N-phenyl-1,3,5-triazine-2,4-diamine]"
6,2060,"CC(C)SC1CCN(c2nc(-c3nc(N)nc(N(C)c4ccccc4)n3)no2)CC1 [Example 367, 2-N-methyl-2-N-phenyl-6-{5-[4-(propan-2-ylsulfanyl)piperidin-1-yl]-1,2,4-oxadiazol-3-yl}-1,3,5-triazine-2,4-diamine]"
7,3250,"CN(c1ccccc1)c1nc(N)nc(-c2noc(C(=O)N3CCC(COCC4CC4)CC3)n2)n1 [Example 459, 6-[5-({4-[(cyclopropylmethoxy)methyl]piperidin-1-yl}carbonyl)-1,2,4-oxadiazol-3-yl]-2-N-methyl-2-N-phenyl-1,3,5-triazine-2,4-diamine]"
8,366,"CN(c1cccc(F)c1)c1nc(N)nc(-c2noc(-c3ncccc3F)n2)n1 [Example 476, 2-N-(3-fluorophenyl)-6-[5-(3-fluoropyridin-2-yl)-1,2,4-oxadiazol-3-yl]-2-N-methyl-1,3,5-triazine-2,4-diamine]"
9,2030,Cc1cnc(-c2nc(-c3nc(N)nc(N(C)c4ccccc4)n3)no2)s1 [Example 342]

# Same assay, conditions: marker c: Automated patch clamp data; read-out: Nav 1.7 activity
row,IC50 [nM],Compound
1,5220,"CN(c1ccccc1)c1nc(N)nc(-c2noc(-c3ncc[nH]3)n2)n1 [Example 65, 6-(5-Imidazol-2-yl-[1,2,4]oxadiazol-3-yl)-N-methyl-N-phenyl-[1,3,5]triazine-2,4-diamine]"
2,931,"Cc1cccc(N(C)c2nc(N)nc(-c3noc(-c4cccs4)n3)n2)c1 [Example 93, N-Methyl-6-(5-thiophen-2-yl-[1,2,4]oxadiazol-3-yl)-N-m-tolyl-[1,3,5]triazine-2,4-diamine]"
3,1320,"CN(c1ccccc1)c1nc(N)nc(-c2noc(-c3cccnc3)n2)n1 [Example 115, N-Methyl-N-phenyl-6-(5-pyridin-3-yl-[1,2,4]oxadiazol-3-yl)-[1,3,5]triazine-2,4-diamine]"
4,123,"CCN(c1ccccc1)c1nc(N)nc(-c2noc(-c3ccccc3Cl)n2)n1 [Example 192, 6-[5-(2-chlorophenyl)-1,2,4-oxadiazol-3-yl]-2-N-ethyl-2-N-phenyl-1,3,5-triazine-2,4-diamine]"
5,4580,"CN(c1ccccc1)c1nc(N)nc(-c2noc(C3CCCCO3)n2)n1 (stereo not drawn) [Example 56, N-Methyl-N-phenyl-6-[5-(tetrahydro-pyran-2-yl)-[1,2,4]oxadiazol-3-yl]-[1,3,5]triazine-2,4-diamine]"
6,431,"Cc1cccc(N(C)c2nc(N)nc(-c3noc(-c4ccccc4Cl)n3)n2)c1 [Example 195, 6-[5-(2-chlorophenyl)-1,2,4-oxadiazol-3-yl]-2-N-methyl-2-N-(3-methylphenyl)-1,3,5-triazine-2,4-diamine]"
7,8120,"CN(c1ccccc1)c1nc(N)nc(-c2noc(-c3c[nH]cn3)n2)n1 [Example 59, 6-[5-(1H-Imidazol-4-yl)-[1,2,4]oxadiazol-3-yl]-N-methyl-N-phenyl-[1,3,5]triazine-2,4-diamine]"
8,3380,"CN(c1ccccc1)c1nc(N)nc(-c2noc(-c3cccc4c3OCC4)n2)n1 [Example 63, 6-[5-(2,3-Dihydro-benzofuran-7-yl)-[1,2,4]oxadiazol-3-yl]-N-methyl-N-phenyl-[1,3,5]triazine-2,4-diamine]"
9,571,"CCN(c1ccccc1)c1nc(N)nc(-c2noc(-c3cc(F)ccc3OC)n2)n1 [Example 197, 2-N-ethyl-6-[5-(5-fluoro-2-methoxyphenyl)-1,2,4-oxadiazol-3-yl]-2-N-phenyl-1,3,5-triazine-2,4-diamine]"
10,1000,"CN(c1ccccc1)c1nc(N)nc(-c2noc(C3CCN(Cc4ccccc4)CC3)n2)n1 [Example 173, 6-[5-(1-Benzylpiperidin-4-yl)-1,2,4-oxadiazol-3-yl]-2-N-methyl-2-N-phenyl-1,3,5-triazine-2,4-diamine]"
11,2720,"Cc1cc(-c2nc(-c3nc(N)nc(N(C)c4ccccc4)n3)no2)no1 [Example 44, N-Methyl-6-[5-(5-methyl-isoxazol-3-yl)-[1,2,4]oxadiazol-3-yl]-N-phenyl-[1,3,5]triazine-2,4-diamine]"
12,170,"CN(c1cccc(Cl)c1)c1nc(N)nc(-c2noc(-c3ccccc3Cl)n2)n1 [Example 84, N-(3-Chloro-phenyl)-6-[5-(2-chloro-phenyl)-[1,2,4]oxadiazol-3-yl]-N-methyl-[1,3,5]triazine-2,4-diamine]"
